In PMC6349854, “GLUT1 and GLUT3 involvement in anthocyanin gastric transport- Nanobased targeted approach” (Scientific Reports, 2019):

Columns and labels:
MKN-28 cells = assay: Transepithelial transport of anthocyanins through MKN-28 gastric barrier (apical to basolateral); assay type: in vitro ADME, human; settings: for paracellular transport efficiency: 4 °C; for paracellular transport efficiency / transport efficiency at 180 minutes: apical pH 5.0, basolateral pH 7.4, anthocyanin 500 µM; for transport efficiency at 180 minutes: 37 °C
Description: (§1) Transepithelial transport experiments were performed using a similar procedure from the one described elsewhere. […] Cells were cultured at 37 °C in an atmosphere of 5% CO2 and the medium was changed every two days.
(§2) After this treatment, media was removed and cells were washed with Hanks’ medium (HBSS), pH 7.4 at the basolateral side and with HBSS pH 5.0 at the apical side. Anthocyanin solution (500 µM) in HBSS pH 5.0 was added to the apical side of the cells and HBSS containing 2% fetal bovine serum free of polyphenols was added to the basolateral compartment. Transepithelial transport was followed as a function of time, at 4 °C and 37 °C. Samples were taken from the basolateral side and replaced by fresh medium. The samples (150 µL) were acidified with HCl 6 M to a final concentration of 1% and frozen at −18 °C until HPLC analysis.

[1] = tested on: Mv3glc transport through MKN-28 barrier; assay: Effect of transporter inhibitors on anthocyanin transport through MKN-28 barrier; assay type: cell-based, human
Description: as §1, §2

SMILES	paracellular transport efficiency (MKN-28 cells)	transport efficiency at 180 minutes (MKN-28 cells; 180 min)	further results
COc1cc(-c2[o+]c3cc(O)cc(O)c3cc2O[C@@H]2O[C@H](CO)[C@@H](O)[C@H](O)[C@H]2O)ccc1O [Pn3glc, Peonidin-3-O-glucoside]	below 2%	~ 10%	
CCCN(CCC)S(=O)(=O)c1ccc(C(=O)O)cc1 [Probenecid]			effect on Mv3glc transport ([1]; inhibitor 50 µM, apical pH 5.0, basolateral pH 7.4): no effect
COc1cc(-c2[o+]c3cc(O)cc(O)c3cc2O[C@@H]2O[C@H](CO)[C@@H](O)[C@H](O)[C@H]2O)cc(OC)c1O [Mv3glc, Malvidin-3-O-glucoside]	below 2%	~ 10%	inhibitory effect on transport when both transporters inhibited simultaneously (MKN-28 cells; GLUT1 and GLUT3 silenced together (AuNP@GLUT1 + 3), 24 h + 24 h): much more pronounced and additive; relative reduction of transport (MKN-28 cells; after silencing of GLUT1 or GLUT3 by nanoconjugates 24 h + 24 h, 180 min, versus respective control (AuNP@PEG)): around 25%
C=C1[C@@H](C)[C@H]2[C@H](Cc3ccccc3)NC(=O)[C@]23OC(=O)/C=C/[C@H](O)CCC[C@@H](C)C/C=C/[C@H]3[C@@H]1O [cytochalasin B]			inhibitory effect on anthocyanin transport ([1]; cytochalasin B 50 µM added simultaneously with AuNP@GLUT1 + 3): inhibitory effect was higher
